Each block holds one molecule with its values, some of them ahead of it.
Key:
[1] = system: CD73 and TIGIT expression on CD4+ and CD8+ T cells; assay: Blood immune-monitoring of metastatic melanoma patients during anti-PD1 treatment (multiparametric flow cytometry); assay type: in vivo, human
Method: 2nd line metastatic melanoma patients treated with anti PD-1 (Nivolumab, 3 mg/kg/i.v, every 2 weeks) were subjected to blood immune-monitoring, by multiparametric flow cytometry analysis, to assess, using specific coupled mAbs against CD73 (APC) and TIGIT (PE), the modulation of expression of both ICP on CD4+ and CD8+ T cells before (inclusion, WO) and during treatment (W2, W12).

MDR1 = biological target: T1, MDR1 (Homo sapiens, UniProt P08183); assay: MDR1 functionality: Rhodamine 123 (Rhd123) efflux by flow cytometry; assay type: cell-based; conditions: HD-PBMC stained with Rhd123 (1 μg/ml); Elacridar 1 μM
T1 construct: After staining of HD-PBMC with Rhd123 we analyzed, by flow cytometry, cells endowed with Rhd123 efflux function; endogenous in cells
T1 sequence (P08183 whole entry): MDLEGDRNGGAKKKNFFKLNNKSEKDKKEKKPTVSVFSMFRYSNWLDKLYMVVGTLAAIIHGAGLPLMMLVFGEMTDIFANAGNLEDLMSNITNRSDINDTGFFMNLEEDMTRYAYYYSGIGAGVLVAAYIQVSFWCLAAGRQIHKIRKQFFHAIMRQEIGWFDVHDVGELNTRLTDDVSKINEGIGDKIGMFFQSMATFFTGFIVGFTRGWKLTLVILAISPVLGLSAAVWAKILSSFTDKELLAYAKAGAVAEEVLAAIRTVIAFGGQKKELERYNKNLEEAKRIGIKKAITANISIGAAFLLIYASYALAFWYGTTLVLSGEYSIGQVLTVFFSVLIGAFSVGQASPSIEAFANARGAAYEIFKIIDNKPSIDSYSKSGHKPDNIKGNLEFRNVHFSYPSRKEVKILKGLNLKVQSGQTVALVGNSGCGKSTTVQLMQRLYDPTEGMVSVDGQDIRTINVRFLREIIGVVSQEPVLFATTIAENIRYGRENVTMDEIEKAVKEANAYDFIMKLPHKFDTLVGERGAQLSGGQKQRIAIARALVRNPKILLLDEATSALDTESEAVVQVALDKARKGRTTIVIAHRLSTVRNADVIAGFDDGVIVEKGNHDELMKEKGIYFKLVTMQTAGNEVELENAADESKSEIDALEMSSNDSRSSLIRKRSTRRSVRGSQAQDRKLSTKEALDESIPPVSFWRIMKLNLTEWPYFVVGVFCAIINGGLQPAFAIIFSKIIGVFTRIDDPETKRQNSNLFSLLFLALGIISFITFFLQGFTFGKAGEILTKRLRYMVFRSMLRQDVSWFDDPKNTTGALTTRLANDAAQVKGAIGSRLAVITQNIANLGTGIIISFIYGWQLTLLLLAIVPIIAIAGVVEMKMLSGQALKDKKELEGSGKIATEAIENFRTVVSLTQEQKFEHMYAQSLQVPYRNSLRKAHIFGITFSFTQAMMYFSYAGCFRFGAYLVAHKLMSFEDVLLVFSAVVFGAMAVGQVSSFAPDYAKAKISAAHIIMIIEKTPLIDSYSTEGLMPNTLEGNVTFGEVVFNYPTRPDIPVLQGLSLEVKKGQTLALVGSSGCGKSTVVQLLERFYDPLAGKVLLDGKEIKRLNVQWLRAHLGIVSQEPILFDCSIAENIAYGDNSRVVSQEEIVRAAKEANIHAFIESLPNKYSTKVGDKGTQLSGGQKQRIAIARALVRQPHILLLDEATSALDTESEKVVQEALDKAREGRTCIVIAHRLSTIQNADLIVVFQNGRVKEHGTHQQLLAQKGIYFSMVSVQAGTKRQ
Method: (B, C) MDR1 functionality was assessed on CD73^+ and CD73^neg Tconv by their capacity to exclude Rhd123 (1 μg/ml) analyzed by flow cytometry. […] Frequency of Rhd123^neg cells was analyzed among CD73^+ (black) and CD73^neg (white) Tconv (D). Statistical analysis was performed by using Wilcoxon test.
Moreover, we took advantage of the physiological role of MDR1 in the efflux of specific fluorescent substrate like Rhodamine 123 (Rhd123). After staining of HD-PBMC with Rhd123 we analyzed, by flow cytometry, cells endowed with Rhd123 efflux function.

CD73+ or CD73neg Tconv [2] = assay: Cytokine secretion of purified Tconv subsets after 2 days of anti-CD3/anti-CD28 bead activation; assay type: cell-based, human; conditions: 2 days of activation; addition of Ado
Method: Moreover, the impact of Ado and AMP on cytokine secretion capacity was analyzed on both purified Tconv subsets. To avoid a confounding effect of Ado and AMP on proliferation in this analysis we analyzed cytokine secretion after 2 days of activation with anti-CD3/anti-CD28 beads which was determined as the maximal length of activation without induction of any proliferation (CFSE dilution). First, we confirmed that CD73^+ Tconv produced more IL-2, TNF-α, IFN-γ, IL-17A, IL-22, GM-CSF and IL-3 but less IL-10, IL-13 and IL-21 than CD73^neg in this activation setting. As shown previously for the proliferation, the secretion of the cytokines produced by CD73^+ or CD73^neg Tconv was inhibited by the addition of Ado.

CD73+ or CD73neg Tconv [3] = assay: 4 days' proliferation of purified CD73+ or CD73neg Tconv with anti-CD3/anti-CD28 beads; assay type: cell-based, human
Method: Addition of recombinant ADA (rhADA, 1 μg/ml), inducing degradation of Ado into Ino restored both T cell subsets proliferation confirming the immunosuppressive impact of Ado.

CD73 = biological target: T2, CD73 (Homo sapiens, UniProt P21589); assay: Hydrolysis of C13N15 AMP into Ado by CD73+ Tconv (HPLC); assay type: cell-based
T2 construct: endogenous in cells
T2 sequence (P21589 27-549): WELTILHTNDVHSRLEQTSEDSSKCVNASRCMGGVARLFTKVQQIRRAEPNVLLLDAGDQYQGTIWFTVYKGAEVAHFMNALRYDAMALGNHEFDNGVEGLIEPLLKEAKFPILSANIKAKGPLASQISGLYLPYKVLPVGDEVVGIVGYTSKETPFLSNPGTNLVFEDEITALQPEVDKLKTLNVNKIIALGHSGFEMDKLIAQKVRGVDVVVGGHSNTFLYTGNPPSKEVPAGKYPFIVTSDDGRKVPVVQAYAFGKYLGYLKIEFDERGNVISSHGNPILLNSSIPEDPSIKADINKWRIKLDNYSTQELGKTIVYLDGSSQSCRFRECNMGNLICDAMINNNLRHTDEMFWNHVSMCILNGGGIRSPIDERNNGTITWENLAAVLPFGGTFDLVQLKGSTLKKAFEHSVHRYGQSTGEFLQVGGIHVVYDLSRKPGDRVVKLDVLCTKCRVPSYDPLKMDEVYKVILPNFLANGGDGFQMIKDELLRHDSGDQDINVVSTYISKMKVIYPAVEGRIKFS
Method: To confirm this hypothesis, we quantified, by HPLC, the capacity of Treg to degrade ATP into Ado. To prevent interference with endogenous ATP or metabolites, these experiments were performed with exogenous C13N15 stable isotope ATP. After two hours, Treg purified from HD blood degraded 48.24±6.20% of ATP into AMP without generating neither Ado nor Inosine. […] Moreover, we confirmed that CD73^+ and CD73^neg Tconv were not able to degrade C13N15 ATP.
Using this technique, we confirmed the enzymatic functionality of CD73 on Tconv. Only CD73^+ Tconv were capable of hydrolyzing C13N15 AMP into Ado and this was reversed by addition of a specific CD73 inhibitor (AMPCP).

CD73+ Tconv = assay: Co-culture of Treg with CD73+ or CD73neg Tconv, with or without exogenous ATP: proliferation (CTV dilution); assay type: cell-based, human; conditions: Treg:Tconv ratio 1/1; round-bottomed wells; anti-CD3/anti-CD28 beads
Excerpt: To analyze the biological impact of Ado generation by cooperation between CD39^+ Treg and CD73^+ Tconv, we co-cultured Treg labeled with proliferation marker CFSE in presence of CD73^+ or CD73^neg Tconv labeled with Cell Trace Violet (CTV) at a ratio 1/1 in presence or absence of exogenous ATP in round-bottomed wells with compact cell density in presence of anti-CD3/anti-CD28 beads. […] In contrast, CTV-labeled CD73^+ or CD73^neg proliferation that was not altered by the addition of Treg due to the strong activation. […] To mimic physiological conditions, Treg, CD73^+ and CD73^neg Tconv subsets were mixed together at physiological ratio (10%/20%/70%) observed in blood. ATP induced inhibition of the bulk proliferation which can be rescued by the combined addition of CD39 and CD73 inhibitors. The proliferation of each subset was analyzed by specific proliferation markers (CFSE and CTV alone or in combination).

CD39 = biological target: T3, CD39 (Homo sapiens, UniProt P49961); assay: Degradation of exogenous C13N15 ATP by purified Treg, quantified by HPLC; assay type: cell-based; conditions: Treg purified from HD blood, two hours
T3 construct: Treg purified from HD blood degraded 48.24±6.20% of ATP into AMP; endogenous in cells
T3 sequence (P49961 1-510): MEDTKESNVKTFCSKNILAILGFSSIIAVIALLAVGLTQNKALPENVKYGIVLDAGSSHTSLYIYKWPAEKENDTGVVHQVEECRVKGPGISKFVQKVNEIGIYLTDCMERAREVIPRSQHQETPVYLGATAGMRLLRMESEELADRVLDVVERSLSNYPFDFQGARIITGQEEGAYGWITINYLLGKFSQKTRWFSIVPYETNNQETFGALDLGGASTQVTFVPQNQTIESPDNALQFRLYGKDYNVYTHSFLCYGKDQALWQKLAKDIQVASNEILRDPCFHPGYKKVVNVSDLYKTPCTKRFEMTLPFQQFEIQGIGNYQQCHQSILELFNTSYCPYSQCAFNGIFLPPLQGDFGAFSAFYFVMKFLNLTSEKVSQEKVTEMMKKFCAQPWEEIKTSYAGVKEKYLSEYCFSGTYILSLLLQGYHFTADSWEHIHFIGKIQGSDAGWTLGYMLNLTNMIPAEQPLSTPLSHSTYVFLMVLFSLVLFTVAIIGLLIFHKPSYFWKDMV
Method: FIG. 3: Breast and ovarian tumors contain highly functional CD39+ Treg and CD73+ Tconv with Th1/17 characteristics. (A) Representative expression of CD39 and CD73 analyzed on memory CD4+ Treg and Tconv from Breast (B) and ovarian (OT) by flow cytometry. Frequency of CD39+ cells (B) and Δ CD39 MFI on these cells (C) among paired Treg and Tconv were analyzed by flow cytometry among BT and OT and statistical analysis was performed by Two-way Anova analysis. (D) Purified tumor-associated Treg were assessed for ATP (37.5 μM) degradation by HPLC measurements and compared to HD-blood Treg. In some conditions 30 min pre-incubation with ARL67156 (250 μM) was used to assess the role of CD39 functional activity. (E,F) Δ CD39 MFI of CD39+ cells among Treg (E) or Tconv (F) from paired peripheral blood and BT or OT were analyzed. Statistical analysis was performed by using Two-way Anova analysis. (G) Frequency of CD73+ cells among Tconv from BT and OT was analyzed by flow cytometry. Statistical analysis was performed by using Kruskal-Wallis test.
To confirm this hypothesis, we quantified, by HPLC, the capacity of Treg to degrade ATP into Ado. To prevent interference with endogenous ATP or metabolites, these experiments were performed with exogenous C13N15 stable isotope ATP. After two hours, Treg purified from HD blood degraded 48.24±6.20% of ATP into AMP without generating neither Ado nor Inosine. […]

[4] = system: PBMC-purified memory CD4+ Tconv; assay: in vitro; conditions: 48 h
Method: (§1) Memory CD4^+ Tconv purified from healthy donor PBMC were used. Purified 10^5 CD4^+ Tconv were cultured in 96-round bottomed wells in complete RPMI medium for 48 h in presence of a strong TCR stimulation (expand beads, ratio bead:cell 1:8)+IL-2 (50UI/ml) in absence (medium condition) or in presence of graded doses of Taxol (0.01; 0.1; 1 μM). Viability was analyzed by multiparametric flow cytometry on different cell subsets according to their expression of CD73 and MDR1 (CD73 MDR1, CD73^+MDR1^neg, CD73^negMDR1^+, CD73^negMDR1^neg). Survival was analyzed by multiparametric flow cytometry using Annexin-V and DAPI stainings (both from Becton Dickinson) according to CD73 and MDR1 expression. % of viable cells (Annexin V^neg DAPI^neg) was compared according to the cell subset analyzed.
(§2) Their survival was analyzed by multiparametric flow cytometry using with Annexin-V and DAPI stainings (both from Becton Dickinson) according to CD73 and MDR1 expression. The percentage of viable cells (Annexin V^neg DAPI^neg) was compared according to the cell subset analyzed.

in vitro = conditions: human
Method: as §1, §2

Molecule: Nivolumab: anti PD-1 antibody given to metastatic melanoma patients
- modulation of CD73 expression on CD4+ or CD8+ T cells ([1]; 11 patients, 3 mg/kg i.v. every 2 weeks, before (W0) and during treatment (W2, W12)): No significant modulation
- modulation of TIGIT expression ([1]; between W0 and W2, representative dot plot): increased

- effect on Rhd123 efflux by Tconv (MDR1): completely abrogated
Molecule: COc1cc2c(cc1OC)CN(CCc1ccc(NC(=O)c3cccc4c(=O)c5cccc(OC)c5[nH]c34)cc1)CC2 [Elacridar]

Molecule: Nc1ncnc2c1ncn2[C@@H]1O[C@H](CO)[C@@H](O)[C@H]1O [Ado, adenosine]
- effect on IL-17A secretion by Tconv CD73+ (or CD73neg) (CD73+ or CD73neg Tconv [2]): not altered
- effect on IL-22 secretion (CD73+ or CD73neg Tconv [2]): slightly inhibited
- effect on secretion of the cytokines produced by CD73+ or CD73neg Tconv (CD73+ or CD73neg Tconv [2]): inhibited
- effect on proliferation of both subsets (CD73+ and CD73neg Tconv) (CD73+ or CD73neg Tconv [3]; metronomic addition 75 μM/day, 300 μM final concentration, 4 days): inhibited

Molecule: Nc1ncnc2c1ncn2[C@@H]1O[C@H](COP(=O)(O)O)[C@@H](O)[C@H]1O [AMP]
- effect on proliferation of CD73+ Tconv (CD73+ or CD73neg Tconv [3]; metronomic addition, 150 μM final concentration, 4 days): inhibited

Molecule: Nc1ncnc2c1ncn2[C@@H]1O[C@H](COP(=O)(O)CP(=O)(O)O)[C@@H](O)[C@H]1O [AMPCP]
- effect on hydrolysis of C13N15 AMP into Ado by CD73+ Tconv (CD73): reversed
- effect on inhibition of CD73+ Tconv proliferation induced by Treg and ATP (CD73+ Tconv): reversed
- effect on AMP-induced inhibition of CD73+ Tconv proliferation (CD73+ or CD73neg Tconv [3]; added with AMP (150 μM final concentration)): reversion of inhibition

Molecule: CCN(CC)c1ncnc2c1ncn2[C@@H]1O[C@H](COP(=O)(O)OP(=O)(O)C(Br)(Br)P(=O)(O)O)[C@@H](O)[C@H]1O [ARL67156]
- effect on degradation of ATP into AMP by Treg (CD39): completely inhibited

Molecule: CC(=O)O[C@H]1C(=O)[C@@]2(C)[C@H]([C@H](OC(=O)c3ccccc3)[C@]3(O)C[C@H](OC(=O)[C@H](O)[C@@H](NC(=O)c4ccccc4)c4ccccc4)C(C)=C1C3(C)C)[C@]1(OC(C)=O)CO[C@@H]1C[C@@H]2O [Taxol]
- sensitivity to Taxol-induced apoptosis ([4]; CD73+MDR1neg subset, high Taxol doses): sensitive to apoptosis
- sensitivity to Taxol-induced apoptosis ([4]; CD73negMDR1neg population): highly sensitive
- viability at 48 h, 1 µM (in vitro): 80%

B1: rhADA: recombinant Adenosine Deaminase, inducing degradation of Ado into Ino (protein, UniProt P00813 2-363, looked up)
Adenosine deaminase: AQTPAFDKPKVELHVHLDGSIKPETILYYGRRRGIALPANTAEGLLNVIGMDKPLTLPDFLAKFDYYMPAIAGCREAIKRIAYEFVEMKAKEGVVYVEVRYSPHLLANSKVEPIPWNQAEGDLTPDEVVALVGQGLQEGERDFGVKARSILCCMRHQPNWSPKVVELCKKYQQQTVVAIDLAGDETIPGSSLLPGHVQAYQEAVKSGIHRTVHAGEVGSAEVVKEAVDILKTERLGHGYHTLEDQALYNRLRQENMHFEICPWSSYLTGAWKPDTEHAVIRLKNDQANYSLNTDDPLIFKSTLDTDYQMTKRDMGFTEEEFKRLNINAAKSSFLPEDEKRELLDLLYKAYGMPPSASAGQNL
- effect on Ado-inhibited proliferation of both T cell subsets (CD73+ or CD73neg Tconv [3]; rhADA 1 μg/ml added with exogenous Ado): restored

Reference: patent US20200232974A1, “LYMPHOCYTES EXPRESSING CD73 IN CANCEROUS PATIENT DICTATES THERAPY” (Centre Léon-Bérard, priority 2016, published 2020)
